In patent publication US7531355B2, “Methods and compositions for smooth muscle reconstruction” (The Regents of the University of California, priority 2005, dated 2009):

Key:
[1] = tested on: smooth muscle cells differentiated from ADSCs; test: Smooth muscle contraction in vitro assay (collagen gel); type: cell-based
Experimental: (§1) A mixture of 50% collagen solution (Vitrogen), 25% 4×DMEM with supplemented sodium bicarbonate prepared from powder (Gibco), ˜5 μl volume of glass bead (120-150 μm soda lime microspheres in light blue color) were added to approximately 5×10^5 cells (smooth muscle cells differentiated from ADSCs, although other cell types were utilized as negative controls) to a total volume of 400 μl was prepared on ice. The slurry was transferred to a 24-well plate (with calculated resulting thickness of around 2 mm) and the gel was allowed to polymerize in the 37° C. incubator overnight. Appropriate cell culture medium was added the next day to supplement cell growth, e,.g., smooth muscle medium was added to smooth muscle cells or adipogenic medium was added to adipose cells. The gel was incubated again for another night.
(§2) The following day (2 days after casting the gel) the gel was partially released (i.e., about 280° around the circumference of the well) from the tissue culture well by gently pulling the gel away from the side of the well with a pipette. Carbachol (an acetylcholine agonist) was added to the partially released gel. Response to addition of the drug was monitored by use of a microscope connected to a real-time camera.
Pictures were taken before the gel was released at marked fields. The gel was released with a pipette tip about 280° around the wall of the well. […]

undifferentiated PLA = test: Smooth muscle contraction in vitro assay (collagen gel), control cells; type: cell-based
Experimental: as §1, §2
(§3) Murine NIH 3T3 (fibroblasts ) or undifferentiated PLA cells were run concurrently as controls.
(§4) Pictures were taken before the gel was released at marked fields. […]

fibroblasts (NIH 3T3) = test: as above; type: cell-based, Murine; conditions: control cells NIH 3T3
Experimental: as §1, §2, §3, §4

SMILES | contractile response of gel to the agent ([1]; agent added to partially released gel) | effect on contractile response to isoproterenol ([1]; added beforehand) | contractile response of gel to the agent (undifferentiated PLA) | contractile response of gel to the agent (fibroblasts (NIH 3T3))
CNC[C@H](O)c1cccc(O)c1 [Phenylephrine] | shown to contract gels |  |  | 
CC(C)NCC(O)COc1cccc2ccccc12 (stereo not drawn) [Propranolol] |  | reduced the contractile response |  | 
CC(C)NCC(O)c1ccc(O)c(O)c1 (stereo not drawn) [isoproterenol] |  |  | no response | no response
C[N+](C)(C)CCOC(N)=O [Carbachol] |  |  | very weak response | very weak response
